Like-named read-outs stand apart in the source and are kept apart here.
Experiments:
[1] = tested on: HUVEC (human umbilical vein endothelial cells); test: Cytotoxicity on HUVEC (CCK8), IC50 of polidocanols with different chain lengths; format: cell-based; settings: in words, values of Table 8 not in this copy
[2] = Foaming efficiency of 1% solutions (foam drainage, half-life, coalescence); format: physicochemical; settings: 1% solution, 20 pumps
rabbit ear marginal vein = test: Venous sclerosis after single injection of foam preparation into rabbit marginal ear vein (effective rate, appearance); format: in vivo, New Zealand rabbit; settings: for Effective rate of venous sclerosis compared with positive control low-dose group: in words
[3] = tested on: marginal ear vein of rabbits; test: Venous pathological sections 14 days after injection into rabbit marginal ear vein; format: in vivo, New Zealand rabbit; settings: for Pathological score of rabbit ear blood vessels compared with positive low-dose control group: in words
[4] = 14 days after intravenous injection into rabbit ear margin

CCCCCCCCCCCCOCCOCCOCCOCCO [DD-PEG4-OH]
IC50 value compared with polidocanol group [1]: greater than that of the polidocanol group | Foam half-life time (FHT), in words ([2]; even if a small amount of foam is formed): disappear in a very short time | Foam formation ([2]; in words, listed as P4): it is difficult for the P4 sample to form foam

CCCCCCCCCCCCOCCOCCOCCOCCOCCOCCOCCOCCO [DD-PEG8-OH]
IC50 value compared with polidocanol group [1]: smaller than those of the polidocanol group | Appearance of veins (rabbit ear marginal vein; 14 days after administration): some Blood vessels are blocked | Effective rate of venous sclerosis (rabbit ear marginal vein; [4]): above 83.33% | Effective rate of venous sclerosis compared with positive control low-dose group (rabbit ear marginal vein; 14 days): not lower than the positive control low-dose group | Appearance of veins (rabbit ear marginal vein; 21 days after administration): some blood vessels in the rabbit ear Completely blocked | Effective rate of venous sclerosis compared with positive control low-dose group (rabbit ear marginal vein; 21 days): higher than the positive control low-dose group | Pathological changes in blood vessels, high magnification [3]: a large number of fibroblast proliferations can be seen in the lumen, and red blood cells are scattered among local fibroblasts; new capillaries and macrophages that phagocytose hemosiderin can be seen locally | Pathological changes in blood vessels, low magnification [3]: The tissue structure of each layer of the wall is unclear and the blood vessel lumen is occluded | Pathological score of rabbit ear blood vessels compared with positive low-dose control group [3]: higher than those of the positive low-dose control group

CCCCCCCCCCCCOCCOCCOCCOCCOCCOCCOCCOCCOCCO [DD-PEG9-OH]
IC50 value compared with polidocanol group [1]: smaller than those of the polidocanol group | Appearance of veins (rabbit ear marginal vein; 14 days after administration, low-dose group): some Blood vessels are blocked | Effective rate of venous sclerosis (rabbit ear marginal vein; 14 days, P9 high-dose group): above 83.33% | Effective rate of venous sclerosis compared with positive control low-dose group (rabbit ear marginal vein; 14 days, P9 high-dose group): not lower than the positive control low-dose group | Effective rate of venous sclerosis (rabbit ear marginal vein; 14 days, P9 low-dose group): above 83.33% | Effective rate of venous sclerosis compared with positive control low-dose group (rabbit ear marginal vein; 14 days, P9 low-dose group): not lower than the positive control low-dose group | Appearance of veins (rabbit ear marginal vein; 21 days after administration, low-dose group): some blood vessels in the rabbit ear Completely blocked | Effective rate of venous sclerosis compared with positive control low-dose group (rabbit ear marginal vein; 21 days, P9 high-dose group): higher than the positive control low-dose group | Effective rate of venous sclerosis compared with positive control low-dose group (rabbit ear marginal vein; 21 days, P9 low-dose group): higher than the positive control low-dose group | Pathological score of rabbit ear blood vessels compared with positive low-dose control group ([3]; P9 high-dose group): higher than those of the positive low-dose control group | Pathological score of rabbit ear blood vessels compared with positive low-dose control group ([3]; P9 low-dose group): higher than those of the positive low-dose control group | Pathological changes in blood vessels, high magnification ([3]; high-dose group): a large number of fibroblast proliferations can be seen in the lumen, and red blood cells are scattered among local fibroblasts; new capillaries and macrophages that phagocytose hemosiderin can be seen locally | Pathological changes in blood vessels, low magnification ([3]; high-dose group): The tissue structure of each layer of the wall is unclear and the blood vessel lumen is occluded | Pathological changes in blood vessels, high magnification ([3]; low-dose group): a large number of fibroblast proliferations can be seen in the lumen, and red blood cells are scattered among local fibroblasts; new capillaries and macrophages that phagocytose hemosiderin can be seen locally | Pathological changes in blood vessels, low magnification ([3]; low-dose group): The tissue structure of each layer of the wall is unclear and the blood vessel lumen is occluded

CCCCCCCCCCCCOCCOCCOCCOCCOCCOCCOCCOCCOCCOCCO [DD-PEG10-OH]
IC50 value compared with polidocanol group [1]: smaller than those of the polidocanol group | Foam drainage time (FDT), precipitation time of liquid, in words ([2]; relative to other samples): relatively slow | Effective rate of venous sclerosis (rabbit ear marginal vein; [4]): above 83.33% | Effective rate of venous sclerosis compared with positive control low-dose group (rabbit ear marginal vein; 14 days): not lower than the positive control low-dose group | Effective rate of venous sclerosis compared with positive control low-dose group (rabbit ear marginal vein; 21 days): higher than the positive control low-dose group | Pathological changes in blood vessels, high magnification [3]: a large number of fibroblast proliferations can be seen in the lumen, and red blood cells are scattered among local fibroblasts; new capillaries and macrophages that phagocytose hemosiderin can be seen locally | Pathological changes in blood vessels, low magnification [3]: The tissue structure of each layer of the wall is unclear and the blood vessel lumen is occluded | Pathological score of rabbit ear blood vessels compared with positive low-dose control group [3]: higher than those of the positive low-dose control group

CCCCCCCCCCCCOCCOCCOCCOCCOCCOCCOCCOCCOCCOCCOCCO [DD-PEG11-OH]
IC50 value compared with polidocanol group [1]: smaller than those of the polidocanol group | Effective rate of venous sclerosis (rabbit ear marginal vein; [4]): above 83.33% | Effective rate of venous sclerosis compared with positive control low-dose group (rabbit ear marginal vein; 14 days): not lower than the positive control low-dose group | Effective rate of venous sclerosis compared with positive control low-dose group (rabbit ear marginal vein; 21 days): higher than the positive control low-dose group | Pathological changes in blood vessels, high magnification [3]: a large number of fibroblast proliferations can be seen in the lumen, and red blood cells are scattered among local fibroblasts; new capillaries and macrophages that phagocytose hemosiderin can be seen locally | Pathological changes in blood vessels, low magnification [3]: The tissue structure of each layer of the wall is unclear and the blood vessel lumen is occluded | Pathological score of rabbit ear blood vessels compared with positive low-dose control group [3]: higher than those of the positive low-dose control group

CCCCCCCCCCCCOCCOCCOCCOCCOCCOCCOCCOCCOCCOCCOCCOCCO [DD-PEG12-OH]
IC50 value compared with polidocanol group [1]: smaller than those of the polidocanol group

CCCCCCCCCCCCOCCOCCOCCOCCOCCOCCOCCOCCOCCOCCOCCOCCOCCOCCOCCOCCOCCOCCOCCOCCOCCOCCOCCOCCO [DD-PEG24-OH]
IC50 value compared with polidocanol group [1]: greater than that of the polidocanol group | Foam coalescence time (FCT), time for foam to completely disappear [2]: about 4.25 min
